We go through one molecule from article PMC11345766, “Computational Design of Pore-Forming Peptides with Potent Antimicrobial and Anticancer Activities” (Journal of Medicinal Chemistry, 2024).

Assay [1] deals with MOLM-13, MEC-1 and SU-DHL-4 cancer cell lines. As to conditions: read-out: IC50 values over three cancer cell lines; after 24 h of incubation; physiological pH. The method, then: Anticancer activity of peptides against acute myeloid leukemia MOLM-13, chronic lymphocytic leukemia MEC-1, and diffuse large B-cell lymphoma SU-DHL-4 cell lines was tested using a WST cell viability assay. Cells were cultured in 75 cm^2 culture flasks at 37 °C in 5% CO2 according to the DSMZ recommendations before the start of the experiment. Then, the cells were seeded into 96-well plates in quadruplicate at 2.5 × 10^4 cells/well for SU-DHL-4, and 5 × 10^4 cells/well for MEC-1 and MOLM-13. Cells were treated with either peptides or PBS alone (negative control) for 24–72 h at 37 °C in 5% CO2. After incubation, cell viability was measured by WST-1 (Roche) according to the manufacturer’s instructions using Tecan microplate reader Infinite M200 PRO Plex and expressed as percentage compared to control.

Assay [2] has as its system HL-60, K-562, MCF-7 and HCT-116 cells. As to the kind of experiment: Viability by flow cytometry DiOC6/7AAD staining, effect of pH and media. Type of assay: cell-based, human. The conditions noted are these: 10 μM, 1 h; RPMI, DMEM, PBS at pH 8, 7, 6 and ∼7.6. The method, then: To investigate the effect of pH and media on anticancer activity, we further tested the peptides against four cell lines, HL-60, K-562, and MCF-7, and the colon cancer cells HCT-116, cultured in three different media, namely, RPMI, DMEM, and PBS, each adjusted to three different pH values 8, 7, and 6, and additionally one case without pH adjustment (∼7.6) (Figure 6c). To avoid pH changes due to the natural buffering of the CO2-bicarbonate system used in cell culture, the peptides were tested at a concentration of 10 μM for only 1 h, as the cell lysis effect was already apparent within 30 min of exposure (Figure S9d).
Effects of pH and culture medium on the anticancer activity of peptides against acute myeloid leukemia HL-60, chronic myeloid leukemia K-562, breast adenocarcinoma MCF-7, and colon cancer cells HCT-116 cultured in three different media RPMI (#21875034, Gibco), DMEM (#LM-D1110/500, Biosera), and PBS adjusted to three different pH values 8, 7, and 6, and a medium without pH adjustment (∼7.6), were tested using flow cytometry DiOC6/7AAD (3,3-dihexyloxacarbocyanine iodide/7-amino-actinomycin D) staining assay, as described previously.[102] Media pH was adjusted twice, i.e., 1 day before the experiment and immediately before the experiment. Medium was supplemented with 10% heat-inactivated FBS, glutamine, sodium pyruvate, and antibiotics (100 U/mL penicillin and 100 μg/mL streptomycin). […] To determine cell viability, cells were incubated with DiOC6 (Thermo Fisher Scientific) and 7AAD (Thermo Fisher Scientific) for 15 min at 37 °C and cell viability was measured using a BriCyte E6 flow cytometer (Mindray); viable cells were considered as DiOC6-positive and 7AAD-negative.
The effect of pH on peptide activity in cancer cells was evaluated by the multiway ANOVA followed by Tukey post hoc test. Regarding the comparison of the effect of the medium, we analyzed the data from Figure 6c by comparing RPMI medium and DMEM of the same pH, and statistical significance was assessed using the multiway ANOVA followed by Tukey post hoc test. […]
On the technique in general: In flow cytometry, cells or beads pass a laser one at a time.

SMILES strings stand for the structures. pIC50: −log10 of the molar value.

Take `CC[C@H](C)[C@H](NC(=O)CN)C(=O)NCC(=O)N[C@@H](C)C(=O)N[C@H](C(=O)N[C@@H](CC(C)C)C(=O)N[C@@H](CCCCN)C(=O)N[C@H](C(=O)N[C@@H](CC(C)C)C(=O)N[C@H](C(=O)N[C@H](C(=O)NCC(=O)N[C@@H](CC(C)C)C(=O)N1CCC[C@H]1C(=O)N[C@@H](C)C(=O)N[C@@H](CC(C)C)C(=O)N[C@H](C(=O)N[C@@H](CO)C(=O)N[C@@H](Cc1c[nH]c2ccccc12)C(=O)N[C@H](C(=O)N[C@@H](CCCCN)C(=O)N[C@@H](CCCNC(=N)N)C(=O)N[C@@H](CCCCN)C(=O)N[C@@H](CCCNC(=N)N)C(=O)N[C@@H](CCC(N)=O)C(=O)N[C@@H](CCC(N)=O)C(N)=O)[C@@H](C)CC)[C@@H](C)CC)[C@@H](C)O)[C@@H](C)O)C(C)C)C(C)C` [Melittin, reference compound]: the pIC50 (as a rule, −log10 of the IC50, conventionally taken in molar units) in assay [1] was more than 5.30. In assay [2], the “Activity against cancer cells (cell viability) as a function of pH and medium” value was “did not allow cell growth”.
